According to article PMC8041284, “Tunable Methacrylamides for Covalent Ligand Directed Release Chemistry” (Journal of the American Chemical Society, 2021):
Where two headings read alike, the source gives them in different places. *1 amine or outer side, *2 acyl side, *3 side chain or, on linkers, in order; H or OH if unused. Where a SMILES comes first, the peptide text is derived from it. Bridges are numbered along the chain shown (N, C = ends). Roman numbers before positions name the chains, in order. [ ]: non-standard residue; d: D form. Hexamethylenediamine = C(CCCN[*:2])CCN[*:1]; Dip = N[C@H](C(=O)O)C(c1ccccc1)c1ccccc1; Chg = N[C@H](C(=O)O)C1CCCCC1; NMeA = CN[C@@H](C)C(=O)O

Biological target: BTK (Homo sapiens, UniProt Q06187)
Sequence (Q06187 402-655 limits assumed): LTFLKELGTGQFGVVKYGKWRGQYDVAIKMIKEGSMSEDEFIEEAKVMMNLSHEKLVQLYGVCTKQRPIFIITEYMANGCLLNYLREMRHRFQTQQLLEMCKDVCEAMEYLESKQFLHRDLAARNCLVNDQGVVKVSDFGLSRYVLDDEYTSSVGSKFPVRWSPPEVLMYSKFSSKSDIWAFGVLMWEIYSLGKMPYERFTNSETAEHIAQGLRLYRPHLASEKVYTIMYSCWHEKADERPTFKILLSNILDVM
Experiment: biochemical
[1] = read-out: BTK inhibition (%), 0.75 uM BTK, […] probe 3l, 15 min preincubation

| SMILES | inhibition at 10 µM (read-out: BTK inhibition (%)) [%] | inhibition at 10 µM [1] [%] |
| --- | --- | --- |
| CC(=O)O[C@@H]1[C@H]2[C@@H](OC(=O)Cc3ccccc3)[C@@H](C)C[C@]2(OC(C)=O)C(=O)/C(C)=C/[C@@H]2[C@H](CC[C@]13CO3)C2(C)C [PCM-0216313] | -27.8 |  |
| C[N+]1(C)CCC(=C(c2ccccc2)c2ccccc2)CC1 [PCM-0085922] |  | 13.2 |
| NS(=O)(=O)c1cc(Cl)c(Cl)c(S(N)(=O)=O)c1 [PCM-0086380] |  | -4.7 |
| Cc1cc(C(=O)CN2CCCC2)c(C)n1-c1ccc(F)cc1 [PCM-0215202] | 5.4 |  |
| COc1cc(N2CCC(N)CC2)ccc1Nc1ncc(Cl)c(-c2c[nH]c3ccccc23)n1 [PCM-0215211] |  | 95.9 |
| C[C@@H](Nc1nc(N[C@H](C)C(F)(F)F)nc(-c2cccc(Cl)n2)n1)C(F)(F)F [PCM-0215864] |  | -3.9 |
| C/C1=C\CC[C@]23O[C@H]2[C@@H](OC3=O)c2c(C)coc2C1 [PCM-0216481] |  | -16.2 |
| CC(=O)Oc1cc(C)c(OC(C)=O)c2ccccc12 [PCM-0215056] |  | -25.7 |
| c1ccc2c(Oc3nc(Nc4ccc(N5CCOCC5)cc4)c4ncn(C5CCCCC5)c4n3)cccc2c1 [PCM-0215227] |  | 17.9 |
| C[n+]1c2ccccc2nc2ccccc21 [PCM-0216061] |  | 64.9 |
| C=CC(=O)Nc1cccc(C)c1Nc1ncc2cc(-c3c(Cl)c(OC)cc(OC)c3Cl)ccc2n1 [PCM-0215508] |  | 100 |
| O=C(c1ccc(Oc2ccccc2)cc1Cl)c1c[nH]c2ncnc(N[C@@H]3CC[C@@H](CO)OC3)c12 [PCM-0216245] |  | 116 |
| CN1c2ccccc2C(=O)Nc2cnc(Nc3ccc(N4CCC(O)CC4)cc3)nc21 [PCM-0215745] |  | 93.8 |
| CC1(C)[C@@H](O)CC[C@]2(C)[C@H]3C(=O)C=C4[C@@H]5C[C@@](C)(C(=O)O)CC[C@]5(C)CC[C@@]4(C)[C@]3(C)CC[C@@H]12 [PCM-0214675] |  | 4.7 |
| O=C(Nc1cnn2ccc(N3CCC[C@@H]3c3cc(F)ccc3F)nc12)N1CC[C@H](O)C1 [PCM-0215701] |  | -9 |
| CC(=O)Oc1ccccc1C(=O)Nc1ncc([N+](=O)[O-])s1 [PCM-0090347] |  | 17.9 |
| CNS(=O)(=O)CC1CCC(N(C)c2ncnc3[nH]ccc23)CC1 (stereo not drawn) [PCM-0215617] |  | 9.7 |
| C[C@@H]1CC[C@@]2(OC1)O[C@H]1C[C@H]3[C@@H]4CC=C5C[C@@H](O[C@@H]6O[C@H](CO)[C@@H](O)[C@H](O)[C@H]6O)CC[C@]5(C)[C@H]4CC[C@]3(C)[C@H]1[C@@H]2C [PCM-0216366] |  | -20.1 |
| CCCCNC(=O)NS(=O)(=O)c1ccc(C)cc1 [PCM-0064855] |  | -11.7 |
| O=c1ccc2ccc3occc3c2o1 [PCM-0214995] | -19.3 |  |
| CN[C@@H](C)C(=O)N[C@H](C(=O)N1CCC[C@H]1C(=O)N[C@H](C(=O)NCCCCCCNC(=O)[C@@H](NC(=O)[C@@H]1CCCN1C(=O)[C@@H](NC(=O)[C@H](C)NC)C1CCCCC1)C(c1ccccc1)c1ccccc1)C(c1ccccc1)c1ccccc1)C1CCCCC1 [PCM-0214574] (I: H-[NMeA][Chg]P[Dip] / II: H-[NMeA][Chg]P[Dip]; linker I:C-II:C via Hexamethylenediamine) |  | -1.5 |
| CC(C)(CO)n1cc(C(=O)c2cncc(NC(=O)Cc3ccc(Cl)cn3)c2)c2cnc(N)nc21 [PCM-0215853] |  | 5.5 |
| COc1ccc(CC(=O)Nc2nc3c(s2)CCc2ccccc2-3)cc1OC [PCM-0215753] |  | 55.9 |
| CC1CCN(CC[C@H]2CCCN2S(=O)(=O)c2cccc(O)c2)CC1 [PCM-0065410] |  | 7.8 |
| CCCN1CCO[C@@H]2c3cc(O)ccc3OC[C@H]21 [PCM-0095211] |  | -8.6 |
| Cc1ccc(NC(=O)C2(c3ccc4c(c3)OC(F)(F)O4)CC2)nc1-c1cccc(C(=O)O)c1 [PCM-0095124] |  | -9.3 |

| SMILES | inhibition at 10 µM (read-out: BTK inhibition (%)) [%] | inhibition at 10 µM [1] [%] |
| --- | --- | --- |
| NC(=O)C1CCCc2c1[nH]c1ccc(Cl)cc21 (stereo not drawn) [PCM-0095104] |  | -3.4 |
| CC(C)c1cc(C(=O)N2Cc3ccc(CN4CCN(C)CC4)cc3C2)c(O)cc1O [PCM-0095012] |  | -6.2 |
| CC1(C)S[C@@H]2[C@H](NC(=O)[C@H](NC(=O)N3CCNC3=O)c3ccccc3)C(=O)N2[C@H]1C(=O)O [PCM-0095627] |  | 30.4 |
| CCc1c(Cl)c(O)c(Cl)c(O)c1C(=O)O[C@H]1[C@H](O)[C@H](OC)[C@H](OC/C2=C\C=C\C[C@H](O)/C(C)=C/[C@H](CC)[C@@H](O[C@@H]3OC(C)(C)[C@@H](OC(=O)C(C)C)[C@H](O)[C@@H]3O)/C(C)=C/C(C)=C/C[C@@H]([C@@H](C)O)OC2=O)O[C@@H]1C [PCM-0214774] |  | 45.9 |
| CN1CC(=O)N=C1N [PCM-0090615] |  | -3.4 |
| CCC[C@@H]1C[C@@H](C(=O)N[C@@H]([C@H]2O[C@H](SC)[C@H](OP(=O)(O)O)[C@@H](O)[C@H]2O)[C@H](C)Cl)N(C)C1 [PCM-0095212] |  | -5.1 |
| CN1C(=O)COc2c(C(=O)NC3CN4CCC3CC4)cc(Cl)cc21 (stereo not drawn) [PCM-0095275] |  | -7.7 |
| CCCCN(Cc1ccc(C(=O)NO)cc1)C(=O)Nc1ccccc1 [PCM-0215294] |  | 23.9 |
| O=C(O)[C@@H]1CCCN1 [PCM-0216221] |  | -24.7 |
| CN1CC[C@@H](c2c(O)cc(O)c3c(=O)cc(-c4ccccc4Cl)oc23)[C@@H]1CO [PCM-0215197] |  | -5.5 |
| Cc1sc2c(c1C)C(c1ccc(Cl)cc1)=N[C@@H](CC(N)=O)c1nnc(C)n1-2 [PCM-0215329] |  | -14.7 |
| O=c1cc(N2CCOCC2)oc2c(-c3ccccc3)cccc12 [PCM-0065588] |  | -22.1 |
| COc1cccc2c1C(=O)c1c(O)c3c(c(O)c1C2=O)C[C@@](O)(C(=O)CO)C[C@@H]3O[C@H]1C[C@H](N)[C@H](O[C@@H]2CCCCO2)[C@H](C)O1 [PCM-0214749] |  | 53.7 |
| O[C@@H](c1cc(C(F)(F)F)nc2c(C(F)(F)F)cccc12)[C@H]1CCCCN1 [PCM-0214801] |  | -4.7 |
| CCCS(=O)(=O)Nc1ccc(F)c(C(=O)c2c[nH]c3ncc(-c4ccc(Cl)cc4)cc23)c1F [PCM-0095039] |  | 24.8 |
| CNCC(=O)c1ccc(O)c(O)c1 [PCM-0090552] |  | 10.9 |
| O=C(O)C(=O)CBr [PCM-0216160] |  | 6.2 |
| CC(C)NC[C@H](O)COc1ccc(CCOCC2CC2)cc1 [PCM-0214769] |  | 0.8 |
| OC[C@H]1O[C@H](OC[C@H]2O[C@H](OC[C@H]3O[C@H](O[C@]4(CO)O[C@H](CO)[C@@H](O)[C@@H]4O)[C@H](O)[C@@H](O)[C@@H]3O)[C@H](O)[C@@H](O)[C@H]2O)[C@H](O)[C@@H](O)[C@H]1O [PCM-0216230] |  | 17.8 |
| CC(C)c1ccc(CO)cc1 [PCM-0216002] |  | -6.2 |
| Nc1nc2c(ncn2COC(CO)CO)c(=O)[nH]1 [PCM-0065253] |  | -3.9 |
| O=c1[nH]c2ccccc2n1CCCN1CCC(n2c(=O)[nH]c3cc(Cl)ccc32)CC1 [PCM-0065112] |  | 5.4 |
| COc1cc2ncnc(Sc3nnc(C)s3)c2cc1OC [PCM-0215288] |  | 5.5 |
| CC(C)(C)OC(=O)N[C@H]1CCCCC/C=C\[C@@H]2C[C@@]2(C(=O)NS(=O)(=O)C2CC2)NC(=O)[C@@H]2C[C@@H](OC(=O)N3Cc4cccc(F)c4C3)CN2C1=O [PCM-0214602] |  | -12.5 |
| NC(=O)c1ncn([C@@H]2O[C@H](CO)[C@@H](O)[C@H]2O)c1O [PCM-0065422] |  | 0.9 |
